Data published in patent US20240084353A1, “PROCESS TO PRODUCE MONO-RHAMNOLIPIDS” (Conopco, Inc., d/b/a UNILEVER, priority 2021, published 2024).

Tested on: α-L-rhamnosidase from A. terreus
Experiment: Influence of rhamnose excess on rhamnosidase activity (product inhibition)
Type: biochemical, Aspergillus terreus
Settings: pNPR substrate, rhamnose solutions 0.6-3 mM added 1:1:1, pH 6.5, 40° C., 30 minutes
Procedure: The activity is expressed as the changes in time of the relative absorbance at 405 nm. The absorbance was measured every 30 sec. Substrate was used at 100 μM. The analysis was performed only for α-l-rhamnosidase from A. terreus. The influence of rhamnose excess on enzyme activity was investigated using the same colorimetric method as described above (See FIG. 1). The pNPR substrate was first dissolved in DMSO, with concentration adjusted to 300 μM in 100 mM sodium phosphate buffer pH 6.5. Enzymes were diluted to concentration of 30 μg/mL in 100 mM sodium phosphate buffer pH 6.5. Following sequence of rhamnose concentrations were prepared in 100 mM sodium phosphate buffer pH 6.5: 0.6 mM, 1.2 mM, 1.8 mM, 2.4 mM, 3 mM. 240 μL of the total reaction mixture was prepared by adding the substrate solution, the enzyme solution and the rhamnose solution in 1:1:1 ratio. The activity assay was performed on 96-well Microtiter UV plate by Thermo Scientific (Waltham, MA USA). All reactions were done at pH 6.5 and in temperature 40° C. The changes in absorbance were monitored at 405 nm for 30 minutes in Microplate reader Varioskan® Flash.

SMILES: C[C@H](O)[C@H](O)[C@@H](O)[C@@H](O)C=O [rhamnose]
- substrate conversion rate with increasing amount of rhamnose added: decreased
